Assay results as given in patent publication US20240383875A1, “Benzimidazole Pyridine Derivatives” (Hoffmann-La Roche Inc., priority 2022, published 2024).

Experiments:
Type in all cases: biochemical
SIK2 = SIK2 (Homo sapiens, UniProt Q9H0K1); assay: Enzymatic activity assay SIK2, RapidFire mass spectrometry (phosphorylation of CHK-peptide); settings: RapidFire MS, inhibition of SIK2; read-out: SIK2 RF IC50
In short: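 Read-out is the summed phospho-species fraction of CHK-peptide by RapidFire mass spectrometry, normalized between DMSO and 1 μM YKL-05-099. The reaction used 0.5 nM SIK2, 100 μM ATP and 10 μM peptide solutions in HEPES pH 7.0/10 mM magnesium acetate for 45 min at ambient temperature.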

SIK3 = SIK3 (Homo sapiens, UniProt Q9Y2K2); assay: Enzymatic activity assay SIK3, RapidFire mass spectrometry (phosphorylation of CHK-peptide); settings: RapidFire MS, inhibition of SIK3; read-out: SIK3 RF IC50
In short: (§1)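 Human SIK1/2/3, 5/0.5/1.5 nM; 12.5 mM HEPES pH 7.0, 10 mM Mg acetate, 0.005% BSA. 30 min cpd pre-inc, + CHK-peptide (10 μM soln) + ATP (100 μM soln), 45 min RT. Formic acid stop; RF-MS phospho ratio; IC50.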

SIK1 = SIK1 (Homo sapiens, UniProt P57059); assay: Enzymatic activity assay SIK1, RapidFire mass spectrometry (phosphorylation of CHK-peptide); settings: RapidFire MS, inhibition of SIK1; read-out: SIK1 RF IC50
In short: as §1

Sequence of SIK2 (Q9H0K1 whole entry): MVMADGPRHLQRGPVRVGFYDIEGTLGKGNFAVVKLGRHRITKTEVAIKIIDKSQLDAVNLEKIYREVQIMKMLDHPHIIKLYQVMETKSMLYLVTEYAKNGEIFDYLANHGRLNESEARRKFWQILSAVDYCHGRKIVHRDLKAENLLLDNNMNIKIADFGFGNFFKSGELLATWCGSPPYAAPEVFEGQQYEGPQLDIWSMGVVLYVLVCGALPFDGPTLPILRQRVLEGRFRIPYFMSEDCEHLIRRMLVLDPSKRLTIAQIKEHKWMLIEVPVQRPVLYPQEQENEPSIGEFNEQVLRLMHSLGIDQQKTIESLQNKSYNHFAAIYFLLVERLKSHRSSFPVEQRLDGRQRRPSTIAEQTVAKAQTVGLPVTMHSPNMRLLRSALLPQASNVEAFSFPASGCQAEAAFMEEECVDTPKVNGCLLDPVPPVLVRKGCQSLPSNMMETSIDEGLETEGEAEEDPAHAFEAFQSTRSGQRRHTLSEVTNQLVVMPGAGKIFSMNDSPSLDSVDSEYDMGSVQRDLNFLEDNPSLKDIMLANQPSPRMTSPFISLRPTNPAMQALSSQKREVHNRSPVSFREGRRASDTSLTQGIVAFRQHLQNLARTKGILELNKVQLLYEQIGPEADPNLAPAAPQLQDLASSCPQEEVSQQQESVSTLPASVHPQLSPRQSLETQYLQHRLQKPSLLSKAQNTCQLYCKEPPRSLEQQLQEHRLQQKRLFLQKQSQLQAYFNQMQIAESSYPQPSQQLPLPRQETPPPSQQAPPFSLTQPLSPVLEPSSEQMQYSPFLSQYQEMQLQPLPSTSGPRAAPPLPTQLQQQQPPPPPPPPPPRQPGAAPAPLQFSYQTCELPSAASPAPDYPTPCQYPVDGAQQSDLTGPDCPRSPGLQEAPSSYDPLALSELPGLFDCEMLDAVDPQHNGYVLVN
Sequence of SIK1 (P57059 whole entry): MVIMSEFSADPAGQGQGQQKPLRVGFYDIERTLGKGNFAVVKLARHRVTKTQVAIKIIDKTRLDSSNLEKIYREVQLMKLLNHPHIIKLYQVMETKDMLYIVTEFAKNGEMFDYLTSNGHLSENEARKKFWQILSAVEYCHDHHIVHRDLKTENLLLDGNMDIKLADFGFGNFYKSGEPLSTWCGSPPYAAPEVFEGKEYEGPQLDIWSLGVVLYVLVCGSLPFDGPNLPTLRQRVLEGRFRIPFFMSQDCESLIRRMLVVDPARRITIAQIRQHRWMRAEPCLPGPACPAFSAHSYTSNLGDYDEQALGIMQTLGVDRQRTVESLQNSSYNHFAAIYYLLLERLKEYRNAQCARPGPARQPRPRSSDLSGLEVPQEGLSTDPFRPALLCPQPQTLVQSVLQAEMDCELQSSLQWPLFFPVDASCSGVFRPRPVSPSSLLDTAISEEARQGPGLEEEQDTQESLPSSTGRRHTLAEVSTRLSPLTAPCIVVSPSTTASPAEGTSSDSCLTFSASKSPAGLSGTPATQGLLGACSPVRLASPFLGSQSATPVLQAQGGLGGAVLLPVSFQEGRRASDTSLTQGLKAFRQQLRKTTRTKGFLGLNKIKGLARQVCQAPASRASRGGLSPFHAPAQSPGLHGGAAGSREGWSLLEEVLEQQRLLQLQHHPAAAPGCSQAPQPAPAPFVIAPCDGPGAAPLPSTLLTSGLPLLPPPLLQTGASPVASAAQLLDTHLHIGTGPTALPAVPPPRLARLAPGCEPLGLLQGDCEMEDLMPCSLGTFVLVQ
Sequence of SIK3 (Q9Y2K2 whole entry): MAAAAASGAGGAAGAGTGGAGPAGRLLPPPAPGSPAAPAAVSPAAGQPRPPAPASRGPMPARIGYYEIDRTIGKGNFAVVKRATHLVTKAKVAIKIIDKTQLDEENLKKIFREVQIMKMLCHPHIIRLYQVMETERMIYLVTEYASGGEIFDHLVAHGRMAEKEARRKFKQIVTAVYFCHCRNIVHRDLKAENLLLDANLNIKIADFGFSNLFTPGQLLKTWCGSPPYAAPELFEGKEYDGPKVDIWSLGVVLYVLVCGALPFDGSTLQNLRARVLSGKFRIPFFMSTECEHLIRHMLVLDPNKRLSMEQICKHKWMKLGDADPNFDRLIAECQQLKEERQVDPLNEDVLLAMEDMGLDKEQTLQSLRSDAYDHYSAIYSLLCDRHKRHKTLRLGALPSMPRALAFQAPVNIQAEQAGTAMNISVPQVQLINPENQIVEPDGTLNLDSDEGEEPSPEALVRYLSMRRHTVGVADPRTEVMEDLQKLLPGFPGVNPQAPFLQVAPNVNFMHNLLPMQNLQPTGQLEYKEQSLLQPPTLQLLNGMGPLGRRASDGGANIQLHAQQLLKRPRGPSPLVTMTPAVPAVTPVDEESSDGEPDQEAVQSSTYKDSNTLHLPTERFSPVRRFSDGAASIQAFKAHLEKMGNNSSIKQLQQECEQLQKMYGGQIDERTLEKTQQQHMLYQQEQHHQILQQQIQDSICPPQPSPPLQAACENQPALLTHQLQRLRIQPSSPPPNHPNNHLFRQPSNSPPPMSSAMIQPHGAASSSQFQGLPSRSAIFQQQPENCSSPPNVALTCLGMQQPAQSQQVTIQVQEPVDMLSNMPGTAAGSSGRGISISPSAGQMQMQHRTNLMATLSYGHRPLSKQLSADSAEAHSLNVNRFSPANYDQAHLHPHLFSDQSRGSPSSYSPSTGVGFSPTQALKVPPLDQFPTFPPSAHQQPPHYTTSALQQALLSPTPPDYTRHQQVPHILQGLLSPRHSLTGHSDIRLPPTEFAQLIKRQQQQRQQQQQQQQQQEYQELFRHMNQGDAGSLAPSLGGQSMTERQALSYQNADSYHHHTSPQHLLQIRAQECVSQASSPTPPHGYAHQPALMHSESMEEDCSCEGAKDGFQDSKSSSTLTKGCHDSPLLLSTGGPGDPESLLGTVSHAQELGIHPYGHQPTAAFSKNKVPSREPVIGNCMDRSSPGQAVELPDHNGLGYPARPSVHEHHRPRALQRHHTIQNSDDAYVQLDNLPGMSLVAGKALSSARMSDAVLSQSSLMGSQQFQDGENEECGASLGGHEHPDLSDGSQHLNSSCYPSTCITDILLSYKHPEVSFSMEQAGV

| IC50 (SIK2) [nM] | IC50 (SIK3) [nM] | IC50 (SIK1) [nM] | SMILES |
| --- | --- | --- | --- |
| 32.2 | 37.1 | 14500 | Cc1cc(C(=O)N(C)C)c(Nc2ccc3c(c2)ncn3-c2ccc(CO)c(-n3nc(C(F)F)cc3C(F)F)n2)nn1 [Example 348, 3-[[1-[6-[3,5-bis(difluoromethyl)pyrazol-1-yl]-5-(hydroxymethyl)-2-pyridyl]benzimidazol-5-yl]amino]-N,N,6-trimethyl-pyridazine-4-carboxamide] |
| 5.3 | 6.6 | 432 | Cc1ccc(Nc2ccc3c(c2)ncn3-c2ccc(C(C)O)c(-c3nn(CC(F)(F)F)cc3C)n2)nn1 (stereo not drawn) [Example 349, 1-[6-[5-[(6-methylpyridazin-3-yl)amino]benzimidazol-1-yl]-2-[4-methyl-1-(2,2,2-trifluoroethyl)pyrazol-3-yl]-3-pyridyl]ethanol] |
| 67 | 60.6 | 3800 | Cc1nn(CC(F)(F)F)cc1-c1nc(-n2cnc3cc(Oc4ccc(CN5CCOCC5)nn4)ccc32)ccc1C(C)O (stereo not drawn) [Example 350, 1-[2-[3-methyl-1-(2,2,2-trifluoroethyl)pyrazol-4-yl]-6-[5-[6-(morpholinomethyl)pyridazin-3-yl]oxybenzimidazol-1-yl]-3-pyridyl]ethanol] |
| 35.4 | 9.3 | 3390 | Cc1ccc(Oc2ccc3c(c2)ncn3-c2ccc(C(C)O)c(-c3cn(CC(F)(F)F)nc3C)n2)nn1 (stereo not drawn) [Example 351, 1-[6-[5-(6-methylpyridazin-3-yl)oxybenzimidazol-1-yl]-2-[3-methyl-1-(2,2,2-trifluoroethyl)pyrazol-4-yl]-3-pyridyl]ethanol] |
| 16.5 | 24.1 | 2340 | Cc1nn(CC(F)(F)F)cc1-c1nc(-n2cnc3cc(Oc4ccc(CN5CCN(C)CC5)nn4)ccc32)ccc1C(C)O (stereo not drawn) [Example 352, 1-[6-[5-[6-[(4-methylpiperazin-1-yl)methyl]pyridazin-3-yl]oxybenzimidazol-1-yl]-2-[3-methyl-1-(2,2,2-trifluoroethyl)pyrazol-4-yl]-3-pyridyl]ethanol] |
| 60.6 | 218 | 230 | Cc1ccc(Nc2cc3c(cc2OC2COC2)ncn3-c2ccc(C(C)O)c(-n3nc(OC(F)F)cc3C)n2)nn1 (stereo not drawn) [Example 353, 1-[2-[3-(difluoromethoxy)-5-methyl-pyrazol-1-yl]-6-[6-[(6-methylpyridazin-3-yl)amino]-5-(oxetan-3-yloxy)benzimidazol-1-yl]-3-pyridyl]ethanol] |
| 78.6 | 75.9 | 225 | Cc1ccc(Nc2cc3c(cc2F)ncn3-c2ccc(C(C)O)c(-n3nc(Cl)cc3C)n2)nn1 (stereo not drawn) [Example 354, 1-[2-(3-chloro-5-methyl-pyrazol-1-yl)-6-[5-fluoro-6-[(6-methylpyridazin-3-yl)amino]benzimidazol-1-yl]-3-pyridyl]ethanol] |
| 5.3 | 3.6 | 1050 | Cc1ccc(Nc2cc3ncn(-c4ccc(C(C)O)c(-n5nc(Cl)cc5C)n4)c3cc2F)nn1 (stereo not drawn) [Example 355, 1-[2-(3-chloro-5-methyl-pyrazol-1-yl)-6-[6-fluoro-5-[(6-methylpyridazin-3-yl)amino]benzimidazol-1-yl]-3-pyridyl]ethanol] |
| 0.9 | 1.7 | 245 | Cc1ccc(Nc2cc3ncn(-c4ccc(C(C)O)c(-c5cn(CC6CC6)nc5C)n4)c3cc2F)nn1 (stereo not drawn) [Example 356, 1-[2-[1-(cyclopropylmethyl)-3-methyl-pyrazol-4-yl]-6-[6-fluoro-5-[(6-methylpyridazin-3-yl)amino]benzimidazol-1-yl]-3-pyridyl]ethanol] |
| 1 | 1.7 | 19 | Cc1ccc(Nc2cc3ncn(-c4ccc(C(C)O)c(-n5nc(OC(F)F)cc5C)n4)c3cc2OC2COC2)nn1 (stereo not drawn) [Example 357, 1-[2-[3-(difluoromethoxy)-5-methyl-pyrazol-1-yl]-6-[5-[(6-methylpyridazin-3-yl)amino]-6-(oxetan-3-yloxy)benzimidazol-1-yl]-3-pyridyl]ethanol] |
| 2.5 | 8.4 | 51 | Cc1nn(CC(F)(F)F)cc1-c1nc(-n2cnc3cc(NC(=O)CN4CCCCC4)ccc32)ccc1C(C)O (stereo not drawn) [Example 358, N-[1-[5-(1-hydroxyethyl)-6-[3-methyl-1-(2,2,2-trifluoroethyl)pyrazol-4-yl]-2-pyridyl]benzimidazol-5-yl]-2-(1-piperidyl)acetamide] |
| 25.3 | 4.6 | 1170 | Cc1ccc(Nc2ccc3c(c2)ncn3-c2ccc(C(C)O)c(N3CC(C#N)C4(CCC4)C3)n2)nn1 (stereo not drawn) [Example 359, 6-[3-(1-hydroxyethyl)-6-[5-[(6-methylpyridazin-3-yl)amino]benzimidazol-1-yl]-2-pyridyl]-6-azaspiro[3.4]octane-8-carbonitrile] |
| 42.3 | 7.9 | 2320 | Cc1ccc(Nc2ccc3c(c2)ncn3-c2ccc(C(C)O)c(N3CCOC(C#N)C3)n2)nn1 (stereo not drawn) [Example 360, 4-[3-(1-hydroxyethyl)-6-[5-[(6-methylpyridazin-3-yl)amino]benzimidazol-1-yl]-2-pyridyl]morpholine-2-carbonitrile] |
| 8.7 | 26.7 | 12 | Cc1ccc(Nc2cc3c(cc2F)ncn3-c2ccc(C(C)O)c(-n3nc(C(F)F)cc3C)n2)c(F)c1F (stereo not drawn) [Example 362, 1-[6-[6-(2,3-difluoro-4-methyl-anilino)-5-fluoro-benzimidazol-1-yl]-2-[3-(difluoromethyl)-5-methyl-pyrazol-1-yl]-3-pyridyl]ethanol] |
| 1.2 | 1 | 152 | Cc1ccc(Nc2ccc3c(c2)ncn3-c2ccc(C(C)O)c(-c3nn(C(F)F)cc3C)n2)nn1 (stereo not drawn) [Example 363, 1-[2-[1-(difluoromethyl)-4-methyl-pyrazol-3-yl]-6-[5-[(6-methylpyridazin-3-yl)amino]benzimidazol-1-yl]-3-pyridyl]ethanol] |
| 2.9 | 11.7 | 8 | Cc1cc(C(F)F)nn1-c1nc(-n2cnc3cc(F)c(Nc4ccc(F)c(F)c4F)cc32)ccc1C(C)O (stereo not drawn) [Example 364, 1-[2-[3-(difluoromethyl)-5-methyl-pyrazol-1-yl]-6-[5-fluoro-6-(2,3,4-trifluoroanilino)benzimidazol-1-yl]-3-pyridyl]ethanol] |
| 44.6 | 446 | 20 | Cc1cc(C#N)nn1-c1nc(-n2cnc3ccc(-c4ccc5c(n4)C(=O)N(C)C5)cc32)ccc1C(C)O (stereo not drawn) [Example 365, 1-[3-(1-hydroxyethyl)-6-[6-(6-methyl-7-oxo-5H-pyrrolo[3,4-b]pyridin-2-yl)benzimidazol-1-yl]-2-pyridyl]-5-methyl-pyrazole-3-carbonitrile] |
| 58.2 | 23.3 | 133 | Cc1cc(C#N)nn1-c1nc(-n2cnc3cc(-c4ccc5c(n4)C(=O)N(C)C5)ccc32)ccc1C(C)O (stereo not drawn) [Example 366, 1-[3-(1-hydroxyethyl)-6-[5-(6-methyl-7-oxo-5H-pyrrolo[3,4-b]pyridin-2-yl)benzimidazol-1-yl]-2-pyridyl]-5-methyl-pyrazole-3-carbonitrile] |
| 1.5 | 0.8 | 88 | Cc1cc(OC(F)F)nn1-c1nc(-n2cnc3cc(Nc4ccc(C(F)F)nn4)ccc32)ccc1C(C)O (stereo not drawn) [Example 367, 1-[2-[3-(difluoromethoxy)-5-methylpyrazol-1-yl]-6-[5-[[6-(difluoromethyl)pyridazin-3-yl]amino]benzimidazol-1-yl]pyridin-3-yl]ethanol] |
| 77.1 | 1100 | 106 | CCc1cc(C(F)F)nn1-c1nc(-n2cnc3ccc(Nc4ccc(C)nn4)cc32)ccc1C(C)O (stereo not drawn) [Example 368, 1-[2-[3-(difluoromethyl)-5-ethyl-pyrazol-1-yl]-6-[6-[(6-methylpyridazin-3-yl)amino]benzimidazol-1-yl]-3-pyridyl]ethanol] |
| 8.2 | 4.1 | 1320 | Cc1ccc(Nc2ccc3c(c2)ncn3-c2ccc(C(C)O)c(-n3nc(C(F)F)c(C)c3C)n2)nn1 (stereo not drawn) [Example 369, 1-[2-[3-(difluoromethyl)-4,5-dimethyl-pyrazol-1-yl]-6-[5-[(6-methylpyridazin-3-yl)amino]benzimidazol-1-yl]-3-pyridyl]ethanol] |
| 7.1 | 2 | 496 | CCc1cc(C(F)F)nn1-c1nc(-n2cnc3cc(Nc4ccc(C)nn4)ccc32)ccc1C(C)O (stereo not drawn) [Example 370, 1-[2-[3-(difluoromethyl)-5-ethyl-pyrazol-1-yl]-6-[5-[(6-methylpyridazin-3-yl)amino]benzimidazol-1-yl]-3-pyridyl]ethanol] |
| 84.7 | 433 | 145 | Cc1cc(C(F)F)nn1-c1nc(-n2cnc3cc(F)c(Nc4ccc(Cl)nn4)cc32)ccc1C(C)O (stereo not drawn) [Example 371, 1-[6-[6-[(6-chloropyridazin-3-yl)amino]-5-fluoro-benzimidazol-1-yl]-2-[3-(difluoromethyl)-5-methyl-pyrazol-1-yl]-3-pyridyl]ethanol] |
| 8.5 | 3.6 | 1220 | Cc1cc(C(F)F)nn1-c1nc(-n2cnc3cc(Nc4ccc(Cl)nn4)c(F)cc32)ccc1C(C)O (stereo not drawn) [Example 372, 1-[6-[5-[(6-chloropyridazin-3-yl)amino]-6-fluoro-benzimidazol-1-yl]-2-[3-(difluoromethyl)-5-methyl-pyrazol-1-yl]-3-pyridyl]ethanol] |
